Results from patent US12239654B2, “Compounds and methods for treating neurological and cardiovascular conditions” (Astrocyte Pharmaceuticals, Inc., priority 2016, dated 2025).
Entries after “also recorded” stand apart in the source; their conditions may differ.

Experiments:
[1] = tested on: mice subjected to stroke; assay: Photothrombosis-induced stroke in mice, TTC-stained brain infarction size; type: in vivo, C57Bl/6 mice; settings: for size of brain infarctions in mice pretreated with A3 receptor antagonist MRS1523: MRS1523 2 mg/kg ip at 0 and 2 hour, treatment within 30 minutes of clot formation; for size of brain infarctions in mice pretreated with A3 receptor antagonist MRS1523 / size of the brain infarction (TTC staining): 24 hours; for size of the brain infarction (TTC staining): photothrombotic stroke mice, vs vehicle; for efficacy in the mouse photothrombotic stroke model: summary statement
Procedure: Photothrombosis-induced Stroke: Photothrombosis was performed as described in Zheng et al 2010 (PloS One 5 (12): e14401). In brief, Rose Bengal is a fluorescent dye that when injected into the vasculature and excited, generates singlet oxygen that damages the endothelial wall and induces a local thrombosis (clot). Using this technique, mice were given a 0.1 mL tail-vein injection of sterilized Rose Bengal (RB, Sigma, U.S.A.) in artificial cerebral spinal fluid (aCSF). The RB concentration was 20 mg/mL. A cortical region was centered in the imaging field and illuminated with a green laser (543 nm, 5 mW) using a 0.8-NA 40× water-immersion objective (Nikon, Tokyo). The clot formation was monitored in real time until the targeted vessel or downstream capillaries were firmly occluded. Stable clots were subsequently identified by a non-fluorescent vessel segmentation ending with highly fluorescent regions. […] Treatments, MRS4322 (0.16 mg/kg; 0.5 μmol/kg) or MRS2365 (0.24 mg/kg; 0.5 μmol/kg) were introduced via intraperitoneal injections (i.p.). For experiments with A3 receptor antagonist MRS1523, mice were administered intraperitoneal injections (2 mg/kg) at the 0 and 2 hour timepoints to ensure receptor antagonism throughout the course of the study.
Animals and Photothrombosis-induced Stroke: Stroke was performed as described in Zheng et al 2010 (PloS One 5 (12): e14401). Female C57Bl/6 mice (4-6 months) were used in this study. From the methods of this manuscript: Mice were anesthetized at 3% isoflurane with 100% oxygen and subsequently maintained at 1% isoflurane through a nosecone. Depth of anesthesia was monitored and regulated according to vital signs, pinch withdrawal and eye blinks. Body temperature was maintained at 37° C. by a feedback-controlled heating pad (Gaymar T/Pump). Vital signs including oxygen saturation, respiratory rate, and heart rate were continuously monitored by using the MouseOx system (STARR Life Sciences). The hair on each mouse's head was trimmed and a small incision was made in the scalp to expose the skull. A custom-made stainless steel plate was glued to the skull with VetBond Tissue Adhesive (3M, St Paul, MN). A cranial thinned-skull imaging window was created over the right primary somatosensory cortex (˜1.5 mm posterior to Bregma and 2 mm lateral from midline) depending on the experiment. In brief, a large region of the skull was first thinned with the electric drill and then further thinned with a surgical blade. The final thickness of the thinned skull was approximately 50 μm. After the cranial imaging window was created, mice were transferred to microscope stage and used for photothrombosis or imaging experiments. For the repeat imaging experiments, the plate was carefully detached from the skull and the scalp was sutured (Ethicon 6-0 sild suture). After each experiment, the mice were either returned to cages until the next timepoint or sacrificed. All procedures were approved by the Institutional Animal Care and Use Committee (IACUC) at University of Texas Health Science Center at San Antonio. Thirty minutes following stroke or sham (uninjured), mice were treated with either vehicle (saline) or drugs (MRS4322, MRS2365, MRS5698 or Cl-IBMECA).
Post photothrombotic infarction evaluation. The size of cerebral infarcts was evaluated using 2,3,5-Triphenyltetrazolium chloride (TTC) staining as described in Zheng et al 2010 (PloS One 5 (12): e14401). In brief, RB-induced lesions in brain slices were stained with TTC. TTC is a colorless dye that stains healthy brain tissue red when reduced by the mitochondrial enzyme succinyl dehydrogenase (Bederson J B et al., 1986). The absence of staining in necrotic tissue is then used to define the area of a brain infarction. Mice were sacrificed by cervical dislocation, their brains removed and then placed in ice cold HBSS for 3 minutes. The brain was subsequently transferred to a brain mold (KOPF), sliced into 1 mm sections and immersed in 2% TTC (5 min) at 37° C. […]

[2] = tested on: mice subjected to traumatic brain injury (TBI); assay: Traumatic brain injury (TBI) in mice, Western blot analysis for GFAP; type: in vivo, C57BL/6 mice; settings: for GFAP expression in brain (GFAP/actin, Western blot): 7 days post-injury, vs TBI untreated; for efficacy in the mouse TBI model: summary statement, FIG. 12
Procedure: Animals and traumatic brain injury (TBI): TBI was performed with a controlled closed skull injury model as described in […] al. 2012 (J. Neurotrauma 30, 55-66). Following the method described therein, a pneumatic impact device was used to generate a moderate TBI leaving the skull and dura matter intact. To achieve this, C57BL/6 mice were anesthetized with isoflurane (3% induction, 1% maintenance) in 100% oxygen. A body temperature of 37° C. was maintained using a temperature-controlled heated surgical table. A small midline incision was made on the scalp using aseptic surgical techniques. A 5 mm stainless steel disc was positioned on the skull and fixed using superglue on the right parietal bone between bregma and lamda over the somatosensory cortex. The mouse was then positioned on a stage directly under the pneumatic impact tip. […] Scalp incisions were closed using 4-0 nylon braided suture and antibiotic ointment applied to the incision. Mice were placed in a Thermo-Intensive Care Unit (Braintree Scientific model FV-1; 37° C.; 27% 02) and monitored until fully awake and moving freely. […] Western Blot Analysis for GFAP: At selected survival times, mice were anesthetized under isoflurane and sacrificed. The brain was removed and placed on ice for dissection into impacted and non-impacted brain hemispheres. […] The homogenate was transferred to a 2 mL tube and centrifuged at 1000 g for 10 minutes at 4° C. and the supernatant was collected and analyzed. Protein concentration was determined by the BCA assay using a 1:50 dilution. 100 μg of protein was removed as an aliquot for each sample and Laemmli buffer containing β-mercaptoethanol added and the sample placed in a heat block for 3 minutes at 95° C. Samples were loaded on a 12% gel and ran at 80 V for 20 minutes followed by 40 minutes at 130 V. Samples were transferred to nitrocellulose membrane at 100 V for 1 hour. The membrane was blocked with 5% milk in TBS-T for 30 minutes. GFAP (1:1000-Imgenex IMG-5083-A) was added and placed at 4° C. overnight. The membrane was washed with TBS-T three times for 10 minutes. Secondary antibody for GFAP (Donkey anti-rabbit HRP conjugated (ImmunoJackson Laboratories; 711-035-152; 1:20000) was applied at room temperature for 1 hour. The membranes were washed with TB S-T for 15 minutes (3 times) and developed using the Western Lightning Plus-ECL kit (PerkinElmer, Inc.) following manufacturer's directions.

[3] = 0.5 μmol/kg ip within 30 minutes of clot formation
[4] = TBI mice, treated 30 min post-TBI, approximately 0.5 μmol/kg

CSc1nc(N)c2ncn([C@H]3[C@H](O)[C@H](O)[C@]4(CO)C[C@H]34)c2n1 [MRS4322]
size of brain infarctions in mice pretreated with A3 receptor antagonist MRS1523 [1]: not reduced; also recorded: reversed by MRS1523
size of the brain infarction (TTC staining) [1, 3]: significantly reduced; also recorded: reduced the effects of stroke infarction
size of the brain infarction (TTC staining) ([1]; 100 ul of 100 uM ip within 30 minutes of clot formation): significantly reduced
efficacy in the mouse photothrombotic stroke model [1]: significant efficacy
GFAP expression in brain (GFAP/actin, Western blot) [2, 4]: significantly lower; also recorded: decreased
GFAP levels in plasma relative to actin (Western blot) ([2]; TBI mice, treated 30 min post-TBI, approximately 0.5 μmol/kg, day 7, vs TBI untreated): significantly reduced
efficacy in the mouse TBI model [2]: significant efficacy

CSc1nc(N)c2ncn([C@H]3[C@H](O)[C@H](O)[C@]4(COP(=O)(O)OP(=O)(O)O)C[C@H]34)c2n1 [MRS2365]
size of brain infarctions in mice pretreated with A3 receptor antagonist MRS1523 [1]: not reduced
size of the brain infarction (TTC staining) [1, 3]: significantly reduced
GFAP expression in brain (GFAP/actin, Western blot) [2, 4]: significantly lower; also recorded: decreased

CNC(=O)[C@H]1O[C@@H](n2cnc3c(NCc4cccc(I)c4)nc(Cl)nc32)[C@H](O)[C@@H]1O [Cl-IB-MECA, 2-Chloro-N^6-(3-iodobenzyl)-adenosine-5′-N-methyluronamide, reference compound]
efficacy in the mouse photothrombotic stroke model [1]: inactive
efficacy in the mouse TBI model [2]: weakly active
